Laboratory results as given in BindingDB's records for doi:10.1021/bi2002967 (University of Colorado Denver, 2011).

These molecules were tested against K562 (Homo sapiens) (assay: Cell assay using human leukemia cell line K562.).

IC50, > 10 µM:
Cc1c(COc2ccc([N+](=O)[O-])cc2)c2c(O)c(N=CCCCN)cc(O)c2n1C [Indolequinone, compd 1]
Cc1c(COc2c(F)cc(F)cc2F)c2c(O)c(N=CCCCN)cc(O)c2n1C [Indolequinone, compd 2]
Cc1c(COc2c(F)cc(F)cc2F)c2c(O)cc(N=CCCCN)c(O)c2n1C [Indolequinone, compd 3]
Cc1c(COc2c(F)cc(F)cc2F)c2c(O)c(N=CCCN)cc(O)c2n1C [Indolequinone, compd 4]
Cc1c(COc2c(F)cc(F)cc2F)c2c(O)c(N=CCCN(C)C)cc(O)c2n1C [Indolequinone, compd 5]
Cc1c(COc2c(F)cc(F)cc2F)c2c(O)cc(N=CCCN(C)C)c(O)c2n1C [Indolequinone, compd 6]
Cc1c(COc2c(F)cc(F)cc2F)c2c(n1C)C(=O)C=C(N(C)CCCN(C)C)C2=O [Indolequinone, compd 7]
Cc1c(COc2ccccc2)c2c(O)c(N=CCCN(C)C)cc(O)c2n1C [Indolequinone, compd 8]
Cc1c(CO)c2c(O)c(N=CCCN(C)C)cc(O)c2n1C [Indolequinone, compd 9]
